The values below come from PubChem BioAssay (NCI).

SMILES strings stand for the structures.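 Test compounds were applied to cells in 96-well plates for 48 hours at 5 doses. The concentration for 50% growth inhibition is given as GI50. At the TGI there is no net growth.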

Holding throughout (assay): NCI-60 cell line screen, 48 h
Assay [1] concerns HCT-116 colon.
In assay [2] the test system is HOP-92 NSCLC.
Assay [3] has as its system OVCAR-8 ovarian.
Assay [4] relates to SF-295 CNS.
Assay [5] has as its system SK-OV-3 ovarian.
Assay [6] relates to SN12C renal.
For assay [7], the system named is SNB-75 CNS.
Assay [8] relates to UACC-257 melanoma.

Consider `COc1cc2c(cc1Nc1nc(Nc3ccsc3C(N)=O)c3cc[nH]c3n1)N(C(=O)CN(C)C)CCC2`, for which the GI50 in assay [1] was 0.458 µM; in assay [2] it was under 0.0025 µM; in assay [3], 0.842 µM; in assay [4], 0.974 µM; in assay [5] it was 1.18 µM; in assay [6], 3.67 µM. The GI50 was 1.49 µM in assay [7] and 0.0558 µM in assay [8]. Also, the TGI in assay [1] was 3.79 µM; in assay [2], 1.19 µM; in assay [3], over 11.2 µM; in assay [4], 4.8 µM; in assay [5] it was 4.89 µM; in assay [6], 11.8 µM. In addition, the results for the TGI in assay [7] and in assay [8] were 3.92 µM and 3.67 µM, respectively.
As for `Oc1c(Br)cc(Br)c2cccnc12`, the GI50 in assay [1] was 3.22 µM; in assay [3], 3.75 µM; in assay [4], 2.26 µM; in assay [5], 3.99 µM; in assay [6] it was 3.23 µM; in assay [7] it was 10.7 µM. Moreover, in assay [8], the GI50 was 2.22 µM. The TGI in assay [1] is 10.6 µM; in assay [3] it was over 100 µM; in assay [4], 6.53 µM; in assay [5] it was 21.1 µM; in assay [6], 35.2 µM; in assay [7], over 100 µM. Besides, the TGI in assay [8] was determined as 6 µM.
Take `COc1cc2c(c(OC)c1OC)-c1c(c3ccc([N+](=O)[O-])cc3c(=O)n1CCCN=[N+]=[N-])C2=O`: the GI50 in assay [1] was 14.2 µM; in assay [2], 21.5 µM; in assay [3], 13.6 µM; in assay [4], 18.5 µM; in assay [5] it was 23.1 µM; in assay [6], 30.4 µM. In assay [8], the GI50 was 0.0793 µM. Moreover, the TGI in assay [1] was 38 µM; in assay [2], 80.2 µM; in assay [3], 68.8 µM; in assay [4], over 100 µM; in assay [5], 55.2 µM; in assay [6], over 100 µM. For the same compound, the TGI in assay [8] came to 11.9 µM.
Take `COc1ccc(C(=O)CC(Cl)=C(Cl)Cl)cc1`: the GI50 in assay [1] is 22.2 µM; in assay [2], 19.3 µM; in assay [3] it was 33.2 µM; in assay [4], 59.9 µM; in assay [5] it was over 100 µM; in assay [6] it was 34.6 µM. Further, the GI50 in assay [8] is 34.4 µM. Besides, the TGI in assay [1] is 63.4 µM; in assay [2], 53.7 µM; in assay [3], over 100 µM; in assay [4] it was over 100 µM; in assay [5], over 100 µM; in assay [6], over 100 µM. This compound also registered a TGI in assay [8] of over 100 µM.
`Cn1c(N)cc(=O)nc1N`: the TGI in assay [1], in assay [3], in assay [4], in assay [5], in assay [6] and in assay [7] was over 100 µM in each case.
In the case of `CN(C)c1ccc(/C=C/C(=O)c2ccc(Nc3nc(Nc4ccc(F)cc4)nc(Nc4ccc(Cl)cc4)n3)cc2)cc1`, the GI50 in assay [1] was 3.3 µM; in assay [3], 1.99 µM; in assay [4], 4.78 µM; in assay [5], 19 µM; in assay [6] it was 15.3 µM; in assay [7], 9 µM. In addition, the GI50 in assay [8] is 11 µM. Moreover, the TGI in assay [1] was 15.5 µM; in assay [3], 15.1 µM; in assay [4], 31.9 µM; in assay [5] it was 74.9 µM; in assay [6] it was over 100 µM; in assay [7] it was 38.9 µM. Moreover, in assay [8], the TGI is 54.7 µM.
As for `Cc1nn(-c2ccccc2)c2ncc3c(c12)C(=O)N(Cc1ccccc1)C3=O`, the GI50 is 1.21 µM in assay [1]; 5.14 µM in assay [3]; 3.14 µM in assay [4]; 5.73 µM in assay [5]; 9.29 µM in assay [6]; 2.23 µM in assay [7]. The GI50 in assay [8] is over 100 µM. Further, the TGI was 6.67 µM in assay [1]; over 100 µM in assay [3]; 10.7 µM in assay [4]; over 100 µM in assay [5]; over 100 µM in assay [6]; 6.64 µM in assay [7]. Also, the TGI in assay [8] is over 100 µM.
As to `O=C(/C=C\c1ccc(Cl)c(Cl)c1)c1ccccc1`, the GI50 in assay [1] is 1.91 µM; in assay [3], 3.98 µM; in assay [4], 10.9 µM; in assay [5], 14.1 µM; in assay [6], 6.77 µM; in assay [7], 11.6 µM. Further, in assay [8], the GI50 was 12.2 µM. In addition, the TGI in assay [1] turned out to be 3.89 µM; in assay [3], 15.1 µM; in assay [4], 23.2 µM; in assay [5] it was 29.8 µM; in assay [6] it was 19.9 µM; in assay [7], 23.8 µM. The TGI in assay [8] was 24.9 µM.
With `CCN(CC)CCCC(C)NC(=S)N/N=C(\C)c1ccccn1` (centres undefined), the GI50 was 2.3 µM in assay [1]; 3.98 µM in assay [2]; 2.87 µM in assay [3]; 4.38 µM in assay [4]; 4.14 µM in assay [6]; 7.55 µM in assay [7]. Besides, the GI50 in assay [8] is 3.16 µM. The TGI in assay [1], in assay [2], in assay [3], in assay [4], in assay [6] and in assay [7] was over 100 µM in each case. In addition, the TGI in assay [8] was determined as 31.2 µM.
Consider `Nc1cc2[nH]c(=O)c3cc(Cl)ccc3c2cc1Cl`, for which the TGI is 68.8 µM in assay [1]; 13.5 µM in assay [3]; 44.2 µM in assay [4]; 15.8 µM in assay [5]; over 100 µM in assay [6]; 61.8 µM in assay [7]. The same compound registered a TGI in assay [8] of 53.4 µM.
In the case of `O=C(CN1C(=O)c2ccccc2C1=O)NC1(C(=O)O)CCCC1`, the TGI in assay [1], in assay [3], in assay [4], in assay [5], in assay [6] and in assay [7] was over 100 µM each time. Moreover, the TGI in assay [8] is over 100 µM.
